Data on 18 compounds can be found in patent publication US5691361A, “1,4-dihydropyridine derivatives, a process for their preparation and their use for influencing the blood flow” (priority 1995, dated 1997).

The subject of assay [1] is spontaneously hypertensive rats (SHR). Kind of assay: Antihypertensive activity in spontaneously hypertensive rats (systolic blood pressure, tail plethysmography). Format: in vivo, spontaneously hypertensive rats (SHR) of Okamoto strain. The conditions noted are these: Rattus norvegicus, single oral dose 20 mg/kg, 2 hours after treatment. On the procedure: The antihypertensive activity of the compounds of the invention is tested in spontaneously hypertensive rats (SHR) of Okamoto strain. Systolic blood pressure is monitored by tail plethysmography. The animals are trained for two weeks for the monitoring process. On the day of the experiment the rats are placed in an oven for two hours at 31°±1° C. and blood pressure is recorded graphically. The measurement recorded is the average of five measurements taken in each case. Only animals with basic values of systolic blood pressure over 170 mm Hg are considered hypertensive. After 24 hours fasting the compound to be tested (20 mg/kg) and/or a carrier (20% PEG 400 in 0.5% aqueous methyl cellulose (10 ml/kg)) is orally administered to the selected hypertensive animals by means of a gastric cannula. The values are expressed in percentage variation 2 hours after treatment.

The subject of assay [2] is left stimulated rabbit atrium / rabbit aorta. Kind of assay: Tissue selectivity: ratio of IC50 in left stimulated isolated rabbit atrium to IC50 in K+-depolarized rabbit aorta. Format: cell-based. The settings on record: ratio of IC50 in left stimulated rabbit atrium and IC50 in rabbit aorta. On the procedure:
(§1) The vasodilatory effects are tested as follows: an isolated aorta of the thorax of white New Zealand rabbits is secured in an organ bath. The contractile activity of the helical throacic aorta strip is recorded after depolarization with Krebs solution without calcium (35 mM, potassium) and addition of external calcium pulses (1.5 mM). The compounds are added in increasing concentrations before calcium is reintroduced.
The electrical stimulation is fixed at 1 Hz. After one hour equilibration the percentage contraction is set at 100%, increased concentrations of the compounds are added to the bath every 15 minutes and the changes in the contractile force are recorded. The IC50 values are calculated by interpolation from the concentration-effect relationship determined in each of the experiments.

Assay [3] concerns rabbit aorta. Briefly: Vasodilatory effect: inhibition of calcium-induced contraction of K+-depolarized isolated rabbit aorta strips. Type of assay: cell-based, white New Zealand rabbits. The settings on record: Oryctolagus cuniculus. On the procedure:
as §1

Take `CC1=C(C(=O)OCCN2C(=O)c3ccccc3S2(=O)=O)C(c2cccc([N+](=O)[O-])c2)C(C(=O)OC(C)C)=C(C)N1` (stereo not drawn) [Example 3, 2,6-Dimethyl-5-isopropoxycarbonyl-4-(3-nitrophenyl)-1,4-dihydropyridine-3-carboxylic acid-2-[N-(1,2-benzisothiazolyl-3(2H)one-1,1-dioxide)]-ethylester]: in assay [1], the change in vivo at 20 mg/kg is 19.7%. Besides, the “Selectivity index (Atrium/Aorta)” value in assay [2] worked out at 137. Moreover, the IC50 (commonly the midpoint of a concentration-inhibition curve) in assay [3] turned out to be 0.27 nM.

Regarding `CC1=C(C(=O)OCCN2C(=O)c3ccccc3S2(=O)=O)C(c2cccc(Cl)c2Cl)C(C(=O)OC(C)C)=C(C)N1` (stereo not drawn) [Example 16, 4-(2,3-Dichlorophenyl)-2,6-dimethyl-5-isopropoxycarbonyl-1,4-dihydropyridine-3-carboxyic acid-2-[N-(1,2-benzisothiazolyl-3(2H)one-1,1-dioxide)]-ethylester], the change in vivo at 20 mg/kg in assay [1] stood at 7.45%. Moreover, the “Selectivity index (Atrium/Aorta)” value in assay [2] is 2744. Moreover, the IC50 in assay [3] was 0.25 nM.

As to `CCOC(=O)C1=C(C)NC(C)=C(C(=O)OCCN2C(=O)c3ccccc3S2(=O)=O)C1c1ccccc1C(F)(F)F` (stereo not drawn) [Example 17, 2,6-Dimethyl-5-ethoxycarbonyl-4-(2-trifluoromethylphenyl)-1,4-dihydropyridine-3-carboxylic acid-2-[N-(1,2-benzisothiazolyl-3(2H)one-1,1-dioxide)]-ethylester], the change in vivo at 20 mg/kg in assay [1] amounted to 27.3%. Further, the “Selectivity index (Atrium/Aorta)” value in assay [2] was found to be 152. Also, in assay [3], the half-maximal inhibitory concentration (IC50) came out at 0.49 nM.

Consider `CC1=C(C(=O)OCCN2C(=O)c3ccccc3S2(=O)=O)C(c2ccccc2C(F)(F)F)C(C(=O)OC(C)C)=C(C)N1` (stereo not drawn) [Example 18, 2,6-Dimethyl-5-isopropoxycarbonyl-4-(2-trifluoromethylphenyl)-1,4-dihydropyridine-3-carboxylic acid-2-[N-(1,2-benzisothiazolyl-3(2H)one-1,1-dioxide)]-ethylester], for which the change in vivo at 20 mg/kg in assay [1] came to 37.1%. Besides, the “Selectivity index (Atrium/Aorta)” value in assay [2] was determined as 103. The 50% inhibitory concentration (IC50) in assay [3] turned out to be 0.98 nM.

As to `CC1=C(C(=O)OCCCN2C(=O)c3ccccc3S2(=O)=O)C(c2cccc([N+](=O)[O-])c2)C(C(=O)OC(C)C)=C(C)N1` (stereo not drawn) [Example 25, 2,6-Dimethyl-5-isopropoxycarbonyl-4-(3-nitrophenyl)-1,4-dihydropyridine-3-carboxylic acid-3-[N-(1,2-benzisothiazolyl-3(2H)one-1,1-dioxide)]-propylester], the change in vivo at 20 mg/kg in assay [1] is -1.01%. For the same compound, the “Selectivity index (Atrium/Aorta)” value in assay [2] was 205. Besides, the IC50 in assay [3] is 1.02 nM.

In the case of `COC(=O)C1=C(C)NC(C)=C(C(=O)OCCCN2C(=O)c3ccccc3S2(=O)=O)C1c1cccc(Cl)c1Cl` (stereo not drawn) [Example 29, 4-(2,3-Dichlorophenyl)-2,6-dimethyl-5-methoxycarbonyl-1,4-dihydropyridine-3-carboxylic acid-3-[N-(1,2-benzisothiazolyl-3(2H)one-1,1-dioxide)]-propylester], in assay [1], the change in vivo at 20 mg/kg came to 35%. The “Selectivity index (Atrium/Aorta)” value in assay [2] stood at 686. Also, in assay [3], the IC50 came out at 0.76 nM.

`COC(=O)C1=C(C)NC(C)=C(C(=O)OCCCN2C(=O)c3ccccc3S2(=O)=O)C1c1ccccc1Cl` (stereo not drawn) [Example 34, 4-(2-Chlorophenyl)-2,6-dimethyl-5-methoxycarbonyl-1,4-dihydropyridine-3-carboxylic acid-3-[N-(1,2-benzisothiazolyl-3(2H)one-1,1-dioxide)]-propylester]: in assay [1], the change in vivo at 20 mg/kg is 11.1%. Further, the “Selectivity index (Atrium/Aorta)” value in assay [2] is reported as 77. Also, the IC50 in assay [3] is 1.82 nM.

`COC(=O)C1=C(C)NC(C)=C(C(=O)OCCCN2C(=O)c3ccccc3S2(=O)=O)C1c1ccccc1[N+](=O)[O-]` (stereo not drawn) [Example 37, 2,6-Dimethyl-5-methoxycarbonyl-4-(2-nitrophenyl)-1,4-dihydropyridine-3-carboxylic acid-3-[N-(1,2-benzisothiazolyl-3(2H)one-1,1-dioxide)]-propylester]: the change in vivo at 20 mg/kg in assay [1] stood at 6.83%. In assay [2], the “Selectivity index (Atrium/Aorta)” value turned out to be 80. The half-inhibitory concentration (IC50) in assay [3] stood at 1.5 nM.

Regarding `CC1=C(C(=O)OCCCN2C(=O)c3ccccc3S2(=O)=O)C(c2ccccc2[N+](=O)[O-])C(C(=O)OC(C)C)=C(C)N1` (stereo not drawn) [Example 39, 2,6-Dimethyl-5-isopropoxycarbonyl-4-(2-nitrophenyl)-1,4-dihydropyridine-3-carboxylic acid-3-[N-(1,2-benzisothiazolyl-3(2H)one-1,1-dioxide)]-propylester], in assay [1], the change in vivo at 20 mg/kg was 3.61%. Further, in assay [2], the “Selectivity index (Atrium/Aorta)” value amounted to 15. In addition, in assay [3], the IC50 is 1.22 nM.

Consider `CCOC(=O)C1=C(C)NC(C)=C(C(=O)OCCCN2C(=O)c3ccccc3S2(=O)=O)C1c1cccc(Cl)c1Cl` (stereo not drawn) [Example 40, 4-(2,3-Dichlorophenyl)-2,6-dimethyl-5-ethoxycarbonyl-1,4-dihydropyridine-3-carboxylic acid-3-[N-(1,2-benzisothiazolyl-3(2H)one-1,1-dioxide)]-propylester], for which the change in vivo at 20 mg/kg in assay [1] amounted to 35.5%. The “Selectivity index (Atrium/Aorta)” value in assay [2] amounted to 200. Moreover, the half-maximal inhibitory concentration (IC50) in assay [3] came out at 1.77 nM.

As for `CC1=C(C(=O)OCCCN2C(=O)c3ccccc3S2(=O)=O)C(c2cccc(Cl)c2Cl)C(C(=O)OC(C)C)=C(C)N1` (stereo not drawn) [Example 42, 4-(2,3-Dichlorophenyl)-2,6-dimethyl-5-isopropoxycarbonyl-1,4-dihydropyridine-3-carboxylic acid-3-[N-(1,2-benzisothiazolyl-3(2H)one-1,1-dioxide)]-propylester], the change in vivo at 20 mg/kg in assay [1] stood at 10.5%. Besides, the “Selectivity index (Atrium/Aorta)” value in assay [2] worked out at 75. Also, the half-maximal inhibitory concentration (IC50) in assay [3] worked out at 2.08 nM.

As to `CCOC(=O)C1=C(C)NC(C)=C(C(=O)OCCCN2C(=O)c3ccccc3S2(=O)=O)C1c1ccccc1C(F)(F)F` (stereo not drawn) [Example 43, 2,6-Dimethyl-5-ethoxycarbonyl-4-(2-trifluoromethylphenyl)-1,4-dihydropyridine-3-carboxylic acid-3-[N-(1,2-benzisothiazolyl-3(2H)one-1,1-dioxide)]-propylester], the change in vivo at 20 mg/kg in assay [1] was found to be 18.6%. For the same compound, in assay [2], the “Selectivity index (Atrium/Aorta)” value amounted to 163. Besides, in assay [3], the IC50 came to 0.76 nM.

Take `COCCOC(=O)C1=C(C)NC(C)=C(C(=O)OCCCN2C(=O)c3ccccc3S2(=O)=O)C1c1ccccc1C(F)(F)F` (stereo not drawn) [Example 45, 2,6-Dimethyl-5-(2-methoxyethoxycarbonyl)-4-(2-trifluoromethylphenyl)-1,4-dihydropyridine-3-carboxylic acid-3-[N-(1,2-benzisothiazolyl-3(2H)one-1,1-dioxide)]-propylester]: in assay [1], the change in vivo at 20 mg/kg amounted to 11%. In addition, in assay [2], the “Selectivity index (Atrium/Aorta)” value was determined as 16. The half-inhibitory concentration (IC50) in assay [3] was determined as 1.38 nM.

Take `CC1=C(C(=O)OCCN2C(=O)c3ccccc3S2(=O)=O)C(c2cccc([N+](=O)[O-])c2)C(C(=O)OC(C)(C)C)=C(C)N1` (stereo not drawn) [Example 51]: the change in vivo at 20 mg/kg in assay [1] came to 24.6%. In addition, the “Selectivity index (Atrium/Aorta)” value in assay [2] is given as 72. Moreover, the concentration for half-maximal inhibition (IC50) in assay [3] was found to be 1.6 nM.

Turning to `CC1=C(C(=O)OCCCN2C(=O)c3ccccc3S2(=O)=O)C(c2ccccc2Cl)C(C(=O)OC(C)C)=C(C)N1` (stereo not drawn) [Example 52, 4-(2-Chlorophenyl)-2,6-dimethyl-5-isopropoxycarbonyl-1,4-dihydropyridine-3-carboxylic acid-3-[N-(1,2-benzisothiazolyl-3(2H)one-1,1-dioxide)]-propylester], the change in vivo at 20 mg/kg in assay [1] was determined as 19.4%. For the same compound, in assay [2], the “Selectivity index (Atrium/Aorta)” value is given as 37. For the same compound, in assay [3], the half-inhibitory concentration (IC50) was 1.3 nM.

For `CC1=C(C(=O)OCCN2C(=O)c3ccccc3S2(=O)=O)C(c2ccccc2[N+](=O)[O-])C(C(=O)OC(C)(C)C)=C(C)N1` (stereo not drawn) [Example 54, 5-Tert.-butoxycarbonyl-2,6-dimethyl-4-(2-nitrophenyl)-1,4-dihydropyridine-3-carboxylic acid-2-[N-(1,2-benzisothiazolyl-3(2H)one-1,1-dioxide)]-ethylester], the change in vivo at 20 mg/kg in assay [1] was found to be 23.4%. In assay [2], the “Selectivity index (Atrium/Aorta)” value was 41. In addition, the IC50 in assay [3] stood at 0.7 nM.

As for `CC1=C(C(=O)OCCN2C(=O)c3ccccc3S2(=O)=O)C(c2cccc(Cl)c2Cl)C(C(=O)OC(C)(C)C)=C(C)N1` (stereo not drawn) [Example 55, 5-Tert.-butoxycarbonyl-4-(2,3-dichlorophenyl)-2,6-dimethyl-1,4-dihydropyridine-3-carboxylic acid-2-[N-(1,2-benzisothiazolyl-3(2H)one-1,1-dioxide)]-ethylester], in assay [1], the change in vivo at 20 mg/kg is 35.8%. For the same compound, the “Selectivity index (Atrium/Aorta)” value in assay [2] was 122. The concentration for half-maximal inhibition (IC50) in assay [3] turned out to be 2.3 nM.

For the compound `COC(=O)C1=C(C)NC(C)=C(C(=O)OC)C1c1ccccc1[N+](=O)[O-]` [nifedipine, 2,6-dimethyl-4-(2-nitrophenyl)-1,4-dihydropyridine-3,5-dicarboxylic acid 3,5-dimethylester, reference compound], in assay [1], the change in vivo at 20 mg/kg is 35.4%. For the same compound, the “Selectivity index (Atrium/Aorta)” value in assay [2] came to 39. Further, the IC50 in assay [3] was determined as 2.9 nM.
